From ChEMBL document CHEMBL3885881, “DrugMatrix”

Species: Rattus norvegicus
Experiment: DrugMatrix - Regimen: Daily Repeat
Type: toxicity, organism-based, Sprague-Dawley
Set-up: regimen Daily Repeat, gender Male, age 6-8 weeks
Details: in vivo, po, route oral GAVAGE, vehicle .5 % CMC; for ABSOLUTE BASOPHIL / ABSOLUTE EOSINOPHIL / ABSOLUTE LYMPHOCYTE / ABSOLUTE MONOCYTE / ABSOLUTE SEGMENTED NEUTROPHIL / BASOPHIL / EOSINOPHIL / ERYTHROCYTE COUNT / HEMATOCRIT / HEMOGLOBIN / LEUKOCYTE COUNT / LYMPHOCYTE / MEAN CORPUSCULAR HEMOGLOBIN / MEAN CORPUSCULAR HEMOGLOBIN CONCENTRATION / MEAN CORPUSCULAR VOLUME / MONOCYTE / NEUTROPHIL / NUCLEATED RED BLOOD CELLS / PLATELET COUNT: tissue Blood; for ALANINE AMINOTRANSFERASE / ALBUMIN / ALKALINE PHOSPHATASE / ASPARTATE AMINOTRANSFERASE / BLOOD UREA NITROGEN / CARBON DIOXIDE / CHLORIDE / CHOLESTEROL / CREATINE PHOSPHOKINASE / CREATININE / GLUCOSE / LACTATE DEHYDROGENASE / LIPASE / PHOSPHORUS / POTASSIUM / SODIUM / TOTAL BILIRUBIN / TOTAL PROTEIN / URIC ACID: tissue Plasma
[1] = 25 mg/kg, 120 h, dose level Low, time 5 day
[2] = 1400 mg/kg, 72 h, dose level High, time 3 day
[3] = 1400 mg/kg, 120 h, dose level High, time 5 day

C[C@](O)(CS(=O)(=O)c1ccc(F)cc1)C(=O)Nc1ccc(C#N)c(C(F)(F)F)c1 [(R)-BICALUTAMIDE]
ABSOLUTE BASOPHIL [1]: 0 CELLS/uL | ABSOLUTE EOSINOPHIL [1]: 40.67 CELLS/uL | ABSOLUTE LYMPHOCYTE [1]: 7260.33 CELLS/uL | ABSOLUTE MONOCYTE [1]: 84 CELLS/uL | ABSOLUTE SEGMENTED NEUTROPHIL [1]: 381.67 CELLS/uL | BASOPHIL [1]: 0% | EOSINOPHIL [1]: 0.67% | ERYTHROCYTE COUNT [1]: 5.41 x10E6/uL | HEMATOCRIT [1]: 34.23% | HEMOGLOBIN [1]: 13.2 G/DL | LEUKOCYTE COUNT [1]: 7.77 x10E3/uL | LYMPHOCYTE [1]: 92.33% | MEAN CORPUSCULAR HEMOGLOBIN [1]: 24.4 pg | MEAN CORPUSCULAR HEMOGLOBIN CONCENTRATION [1]: 38.6 G/DL | MEAN CORPUSCULAR VOLUME [1]: 63.13 fL | MONOCYTE [1]: 1.33% | NEUTROPHIL [1]: 5.67% | NUCLEATED RED BLOOD CELLS [1]: 0 /100WBC | PLATELET COUNT [1]: 1128.67 x10E3/uL | ALANINE AMINOTRANSFERASE [1]: 51.67 u/L | ALBUMIN [1]: 4.37 G/DL | ALKALINE PHOSPHATASE [1]: 358.33 u/L | ASPARTATE AMINOTRANSFERASE [1]: 82.33 u/L | BLOOD UREA NITROGEN [1]: 14.67 mg/dL | CARBON DIOXIDE [1]: 26.67 mmol/L | CHLORIDE [1]: 103.67 MEQ/L | CHOLESTEROL [1]: 67.33 mg/dL | CREATINE PHOSPHOKINASE [1]: 179.33 u/L | CREATININE [1]: 0.2 mg/dL | GLUCOSE [1]: 149.33 mg/dL | LACTATE DEHYDROGENASE [1]: 119.67 u/L | LIPASE [1]: 10 u/L | PHOSPHORUS [1]: 11.83 mg/dL | POTASSIUM [1]: 6.23 MEQ/L | SODIUM [1]: 148.07 MEQ/L | TOTAL BILIRUBIN [1]: 0.2 mg/dL | TOTAL PROTEIN [1]: 6.5 G/DL | URIC ACID [1]: 1.37 mg/dL | ABSOLUTE BASOPHIL [2]: 0 CELLS/uL | ABSOLUTE EOSINOPHIL [2]: 0 CELLS/uL | ABSOLUTE LYMPHOCYTE [2]: 11798 CELLS/uL | ABSOLUTE MONOCYTE [2]: 169.33 CELLS/uL | ABSOLUTE SEGMENTED NEUTROPHIL [2]: 799.33 CELLS/uL | BASOPHIL [2]: 0% | EOSINOPHIL [2]: 0% | ERYTHROCYTE COUNT [2]: 5.52 x10E6/uL | HEMATOCRIT [2]: 36.3% | HEMOGLOBIN [2]: 14.03 G/DL | LEUKOCYTE COUNT [2]: 12.77 x10E3/uL | LYMPHOCYTE [2]: 92.67% | MEAN CORPUSCULAR HEMOGLOBIN [2]: 25.5 pg | MEAN CORPUSCULAR HEMOGLOBIN CONCENTRATION [2]: 38.63 G/DL | MEAN CORPUSCULAR VOLUME [2]: 65.97 fL | MONOCYTE [2]: 1.33% | NEUTROPHIL [2]: 6% | NUCLEATED RED BLOOD CELLS [2]: 0 /100WBC | PLATELET COUNT [2]: 1068 x10E3/uL | ALANINE AMINOTRANSFERASE [2]: 48.67 u/L | ALBUMIN [2]: 4.33 G/DL | ALKALINE PHOSPHATASE [2]: 367.67 u/L | ASPARTATE AMINOTRANSFERASE [2]: 67 u/L | BLOOD UREA NITROGEN [2]: 16.67 mg/dL | CARBON DIOXIDE [2]: 23 mmol/L | CHLORIDE [2]: 102 MEQ/L | CHOLESTEROL [2]: 87.33 mg/dL | CREATINE PHOSPHOKINASE [2]: 182.33 u/L | CREATININE [2]: 0.19 mg/dL | GLUCOSE [2]: 155.33 mg/dL | LACTATE DEHYDROGENASE [2]: 84.67 u/L | LIPASE [2]: 11 u/L | PHOSPHORUS [2]: 11.8 mg/dL | POTASSIUM [2]: 7.17 MEQ/L | SODIUM [2]: 143.37 MEQ/L | TOTAL BILIRUBIN [2]: 0.2 mg/dL | TOTAL PROTEIN [2]: 6.23 G/DL | URIC ACID [2]: 1.57 mg/dL | ABSOLUTE BASOPHIL [3]: 0 CELLS/uL | ABSOLUTE EOSINOPHIL [3]: 139 CELLS/uL | ABSOLUTE LYMPHOCYTE [3]: 14390.33 CELLS/uL | ABSOLUTE MONOCYTE [3]: 36 CELLS/uL | ABSOLUTE SEGMENTED NEUTROPHIL [3]: 934.67 CELLS/uL | BASOPHIL [3]: 0% | EOSINOPHIL [3]: 1% | ERYTHROCYTE COUNT [3]: 5.54 x10E6/uL | HEMATOCRIT [3]: 34.93% | HEMOGLOBIN [3]: 13.77 G/DL | LEUKOCYTE COUNT [3]: 15.5 x10E3/uL | LYMPHOCYTE [3]: 92.67% | MEAN CORPUSCULAR HEMOGLOBIN [3]: 24.87 pg | MEAN CORPUSCULAR HEMOGLOBIN CONCENTRATION [3]: 39.4 G/DL | MEAN CORPUSCULAR VOLUME [3]: 63.03 fL | MONOCYTE [3]: 0.33% | NEUTROPHIL [3]: 6% | NUCLEATED RED BLOOD CELLS [3]: 0.33 /100WBC | PLATELET COUNT [3]: 1189.67 x10E3/uL | ALANINE AMINOTRANSFERASE [3]: 51.33 u/L | ALBUMIN [3]: 4.37 G/DL | ALKALINE PHOSPHATASE [3]: 367.67 u/L | ASPARTATE AMINOTRANSFERASE [3]: 74.33 u/L | BLOOD UREA NITROGEN [3]: 16.67 mg/dL | CARBON DIOXIDE [3]: 27.33 mmol/L | CHLORIDE [3]: 102 MEQ/L | CHOLESTEROL [3]: 87.67 mg/dL | CREATINE PHOSPHOKINASE [3]: 121.67 u/L | CREATININE [3]: 0.22 mg/dL | GLUCOSE [3]: 150.33 mg/dL | LACTATE DEHYDROGENASE [3]: 70.67 u/L | LIPASE [3]: 10 u/L | PHOSPHORUS [3]: 12.73 mg/dL | POTASSIUM [3]: 6.81 MEQ/L | SODIUM [3]: 146.27 MEQ/L | TOTAL BILIRUBIN [3]: 0.2 mg/dL | TOTAL PROTEIN [3]: 6.3 G/DL | URIC ACID [3]: 1.8 mg/dL
